Measured values taken from ChEMBL document CHEMBL5241058, “Pyrazole-based analogs as potential antibacterial agents against methicillin-resistance staphylococcus aureus (MRSA) and its SAR elucidation” (Eur J Med Chem, 2021).
Values after ≈ are worked out from the molar mass of the structure shown. Each block holds one compound with its values, some of them ahead of it.

Experiments:
Type in all cases: functional
Staphylococcus aureus [1] = assay: Antimicrobial activity against Methicillin-resistant Staphylococcus aureus assessed as bacterial growth inhibition incubated for 24 to 48 hrs by microdilution method; conditions: time 24-48 hrs
Staphylococcus aureus [2] = assay: Antimicrobial activity against Methicillin-resistant Staphylococcus aureus ATCC 3167 assessed as bacterial growth inhibition
Pseudomonas aeruginosa = assay: Antimicrobial activity against Pseudomonas aeruginosa ATCC 27853 assessed as bacterial growth inhibition incubated for 18 hrs by microdilution method
[3] = tested on: Salmonella enterica subsp. enterica; assay: Antimicrobial activity against Salmonella typhimurium […] assessed as bacterial growth inhibition incubated for 18 hrs by microdilution method
Escherichia coli = assay: Antimicrobial activity against Escherichia coli ATCC 8739 assessed as bacterial growth inhibition incubated for 18 hrs by microdilution method
Klebsiella pneumoniae = assay: Antimicrobial activity against Klebsiella pneumoniae ATCC 314588 assessed as bacterial growth inhibition incubated for 18 hrs by microdilution method
Staphylococcus aureus [4] = assay: Antimicrobial activity against Methicillin-resistant Staphylococcus aureus assessed as bacterial growth inhibition
Staphylococcus aureus [5] = assay: Antimicrobial activity against Methicillin-resistant Staphylococcus aureus CCARM 3506 assessed as bacterial growth inhibition incubated for 24 hrs by ELISA assay
Staphylococcus aureus [6] = assay: Antimicrobial activity against Methicillin-resistant Staphylococcus aureus ATCC 43300 assessed as bacterial growth inhibition by microdilution method
Staphylococcus aureus [7] = assay: Antimicrobial activity against Methicillin-resistant Staphylococcus aureus ATCC 43300 assessed as bacterial growth inhibition incubated for 24 hrs by microdilution method; conditions: ATCC43300
Staphylococcus aureus [8] = assay: Antimicrobial activity against vancomycin intermediate-resistant Staphylococcus aureus assessed as bacterial growth inhibition incubated for 24 hrs by microdilution method
Staphylococcus aureus [9] = assay: Antimicrobial activity against Methicillin-resistant Staphylococcus aureus ATCC 33599 assessed as bacterial growth inhibition
Staphylococcus aureus [10] = assay: Antibiofilm activity against Methicillin-resistant Staphylococcus aureus USA 300 relative to control
Staphylococcus aureus [11] = assay: Antimicrobial activity against Staphylococcus aureus MTCC 442 assessed as bacterial growth inhibition incubated for 24 to 48 hrs; conditions: time 24-48 hrs
Staphylococcus aureus [12] = assay: Antimicrobial activity against Staphylococcus aureus MTCC 96 assessed as bacterial growth inhibition incubated for 24 to 48 hrs; conditions: time 24-48 hrs

Compound: Cc1onc(-c2ccccc2Cl)c1C(=O)N[C@@H]1C(=O)N2[C@@H]1SC(C)(C)[C@@H]2C(=O)O [CLOXACILLIN]
MIC (Staphylococcus aureus [1]): 94 mg/L (≈ 216 µM)

Compound: COc1ccc(C(=O)Nc2c(C(N)=O)cnn2-c2ccc([N+](=O)[O-])cc2[N+](=O)[O-])cc1
MIC (Staphylococcus aureus [1]): 10 mg/L (≈ 23.5 µM)

Compound: COc1cc(/C=C/c2cc(/C=C/c3ccc(OCC(=O)N[C@@H](C)c4ccccc4)c(OC)c3)[nH]n2)ccc1OCC(=O)N[C@@H](C)c1ccccc1
MIC (Staphylococcus aureus [2]): 10 µM (≈ 6.87 µg/mL)

MIC (Pseudomonas aeruginosa): < 1 mg/L
MIC [3]: < 1 mg/L
MIC (Escherichia coli): < 1 mg/L
MIC (Klebsiella pneumoniae): < 1 mg/L
Compound: Oc1ccccc1-c1nn(-c2ccccc2)cc1-c1nc2ccccn2c1Cc1ccccc1

Compound: COc1cc(/C=C/c2cc(/C=C/c3ccc(OCC(=O)N[C@H](C)c4ccccc4)c(OC)c3)[nH]n2)ccc1OCC(=O)N[C@H](C)c1ccccc1
MIC (Staphylococcus aureus [2]): 10 µM (≈ 6.87 µg/mL)

Compound: Cn1ncc2c3c(C#N)c4ccccc4nc3ccc21
MIC (Staphylococcus aureus [4]): 6 mg/L (≈ 23.2 µM)

Compound: Cn1ncc2c3c(C#N)c4ccc(Br)cc4nc3ccc21
MIC (Staphylococcus aureus [4]): 2 mg/L (≈ 5.93 µM)

Compound: NC(=O)c1cnn(-c2ccc([N+](=O)[O-])cc2[N+](=O)[O-])c1NC(=O)c1ccc(Cl)cc1
MIC (Staphylococcus aureus [1]): 39 mg/L (≈ 90.5 µM)

Compound: Cc1nn(-c2ccc(Cl)cc2Cl)c(Oc2cccc(C(F)(F)F)c2)c1C1N=C(N)NC(NCCc2ccccc2)=N1 (stereo not drawn)
MIC (Staphylococcus aureus [5]): 0.5 mg/L (≈ 0.83 µM)

Compound: CC1=C(C(=O)O)N2C(=O)[C@@H](NC(=O)[C@H](N)c3ccccc3)[C@H]2SC1 [CEPHALEXIN ANHYDROUS]
MIC (Staphylococcus aureus [1]): 72 mg/L (≈ 207 µM)

Compound: O=C1S/C(=C\c2cn(-c3ccccc3)nc2-c2ccc(Cl)cc2)C(=O)N1CCCn1ccc2ccccc21
MIC (Staphylococcus aureus [6]): > 50 mg/L

Compound: Cc1nn(-c2ccc(Cl)cc2)c2c1C(C(=O)O)CC=C(C(=O)O)N2 (stereo not drawn)
MIC (Staphylococcus aureus [7]): > 500 mg/L

Compound: O=C1CN(c2nnc(-c3cccc([N+](=O)[O-])c3)s2)C(c2cn(-c3ccccc3)nc2-c2cccc([N+](=O)[O-])c2)S1 (stereo not drawn)
MBC (Staphylococcus aureus [4]): 312 mg/L (≈ 547 µM)

Compound: O=C1S/C(=C\c2cn(-c3ccccc3)nc2-c2ccc(Cl)cc2Cl)C(=O)N1CCCn1ccc2ccccc21
MIC (Staphylococcus aureus [6]): 6.25 mg/L

Compound: CCn1ncc2c3c(C#N)c4ccccc4nc3ccc21
MIC (Staphylococcus aureus [4]): 3 mg/L (≈ 11 µM)

MIC (Pseudomonas aeruginosa): < 1 mg/L
MIC [3]: < 1 mg/L
MIC (Escherichia coli): < 1 mg/L
MIC (Klebsiella pneumoniae): < 1 mg/L
Compound: Clc1ccc(-c2nn(-c3ccccc3)cc2-c2nc3ccccn3c2Cc2ccccc2)cc1

Compound: O=C(c1cc(C(F)(F)F)n[nH]1)c1cc(Cl)ccc1O
MIC (Staphylococcus aureus [8]): < 0.125 mg/L

Compound: O=C(c1cc(C(F)(F)F)n[nH]1)c1cc(Br)ccc1O
MIC (Staphylococcus aureus [8]): < 0.125 mg/L

Compound: NC(=O)c1cnn(-c2ccc([N+](=O)[O-])cc2[N+](=O)[O-])c1NC(=O)c1ccccc1
MIC (Staphylococcus aureus [1]): 75.3 mg/L (≈ 190 µM)

Compound: O=C(c1cc(C(F)(F)F)n[nH]1)c1cccc(Br)c1O
MIC (Staphylococcus aureus [8]): < 0.125 mg/L

Compound: O=C(O)c1ccc(-n2cc(/C=N/c3ccc(C(F)(F)F)cc3)c(-c3ccc4ccccc4c3)n2)cc1
MBC (Staphylococcus aureus [9]): 25 mg/L (≈ 51.5 µM)
MIC (Staphylococcus aureus [9]): 0.78 mg/L (≈ 1.61 µM)

Compound: Cc1ccc(O)c(C(=O)c2cc(C(F)(F)F)n[nH]2)c1
MIC (Staphylococcus aureus [8]): < 0.125 mg/L

Compound: CC(C)Cn1ncc2c3c(C#N)c4ccc(Br)cc4nc3ccc21
MIC (Staphylococcus aureus [4]): 6 mg/L (≈ 15.8 µM)

MIC (Pseudomonas aeruginosa): < 1 mg/L
MIC [3]: < 1 mg/L
MIC (Escherichia coli): < 1 mg/L
MIC (Klebsiella pneumoniae): < 1 mg/L
Compound: Clc1ccccc1-c1nn(-c2ccccc2)cc1-c1nc2ccccn2c1Cc1ccccc1

Compound: CCn1ncc2c3c(C#N)c4ccc(Br)cc4nc3ccc21
MIC (Staphylococcus aureus [4]): 2 mg/L (≈ 5.69 µM)

Compound: Cc1ccc(Oc2c(C3N=C(N)NC(NCCc4ccccc4)=N3)c(C)nn2-c2ccc(Cl)cc2Cl)c(C)c1 (stereo not drawn)
MIC (Staphylococcus aureus [5]): 0.5 mg/L (≈ 0.889 µM)

Compound: NC(=O)c1cnn(-c2ccc([N+](=O)[O-])cc2[N+](=O)[O-])c1NC(=O)c1ccc([N+](=O)[O-])cc1
MIC (Staphylococcus aureus [1]): 4 mg/L (≈ 9.06 µM)

MIC (Pseudomonas aeruginosa): < 1 mg/L
MIC [3]: < 1 mg/L
MIC (Escherichia coli): < 1 mg/L
MIC (Klebsiella pneumoniae): < 1 mg/L
Compound: COc1cccc(-c2nn(-c3ccccc3)cc2-c2nc3ccccn3c2Cc2ccccc2)c1OC

Compound: Cc1nn(-c2ccccc2)c2c1C(C(=O)O)CC=C(C(=O)O)N2 (stereo not drawn)
MIC (Staphylococcus aureus [7]): > 500 mg/L

Compound: CN[C@H](CC(C)C)C(=O)N[C@H]1C(=O)N[C@@H](CC(N)=O)C(=O)N[C@H]2C(=O)N[C@H]3C(=O)N[C@H](C(=O)N[C@H](C(=O)O)c4cc(O)cc(O)c4-c4cc3ccc4O)[C@H](O)c3ccc(c(Cl)c3)Oc3cc2cc(c3O[C@@H]2O[C@H](CO)[C@@H](O)[C@H](O)[C@H]2O[C@H]2C[C@](C)(N)[C@H](O)[C@H](C)O2)Oc2ccc(cc2Cl)[C@H]1O [VANCOMYCIN]
Activity (Staphylococcus aureus [10]): 18%
MIC (Staphylococcus aureus [8]): < 0.125 mg/L
MBC (Staphylococcus aureus [9]): 6.25 mg/L (≈ 4.31 µM)
MIC (Staphylococcus aureus [9]): 3.12 mg/L (≈ 2.16 µM)

Compound: CCCC#Cc1ccc(-n2ncc(/C(C)=N\NC(=N)N)c2C)cc1
Activity (Staphylococcus aureus [10]): 74%

Compound: Cc1nn(-c2ccccc2Cl)c2c1C(C(=O)O)CC=C(C(=O)O)N2 (stereo not drawn)
MIC (Staphylococcus aureus [7]): > 500 mg/L

Compound: O=C(O)c1ccc(-n2cc(/C=N/c3cccc(Cl)c3F)c(-c3ccc4ccccc4c3)n2)cc1
MBC (Staphylococcus aureus [9]): 12.5 mg/L (≈ 26.6 µM)
MIC (Staphylococcus aureus [9]): 0.78 mg/L (≈ 1.66 µM)

Compound: COc1cc(/C=C/c2cc(/C=C/c3ccc(OCC(=O)NC45CC6CC(CC4C6)C5)c(OC)c3)[nH]n2)ccc1OCC(=O)NC12CC3CC(CC1C3)C2
MIC (Staphylococcus aureus [2]): 10 µM (≈ 7.19 µg/mL)

Compound: O=C(/C=C/c1ccc([N+](=O)[O-])cc1)N1N=C(c2ccncc2)OC1c1cn(-c2ccccc2)nc1-c1ccc(F)cc1 (stereo not drawn)
MIC (Staphylococcus aureus [11]): 12.5 mg/L (≈ 22.3 µM)
MIC (Staphylococcus aureus [12]): 12.5 mg/L (≈ 22.3 µM)
